Each structure is given as a SMILES string.

We go through one molecule from US11058677B2, “LFA-1 inhibitor formulations” (Novartis AG, priority 2012, dated 2021).

A short description of series [1]: Stability of 5.0% solution (percentage of total degradates on storage). It counts as physicochemical. Conditions: for individual degradate versus ICH qualification threshold: about 2 months. As for the experimental part:
Three separate 5.0% aqueous solutions of the compound of Formula 1 were prepared and allowed to stand at temperatures of about 5° C., 25° C., and 40° C. respectively for a period of about 15 months. The percentage of total degradates was measured for each solution after about every 4 weeks. The results of this experiment are graphically represented in FIG. 1.

A short description of series [2]: Stability of three different formulations (total degradates at 40° C.). Format: physicochemical. On the procedure: Three separate solutions of the compound of Formula 1 of same concentration were prepared. The first solution (pH=6.0) was stored at 40° C. without any further additives for about four months. The second solution (pH=6.0) was further treated with a metabisulfite salt and allowed to stand at 40° C. for about four months. The pH of the third solution was buffered to pH 7.5 and allowed to stand at 40° C. for about 4 months without any further additives. The percentage of total degradates was measured for each solution after about every 4 weeks. The results of this experiment are graphically represented in FIG. 2.

Series [3] is described as follows: Effect of antioxidants on stability of 3% w/v solutions. It counts as physicochemical. Conditions: pH 6.5 with 0.3% w/v thiosulfate salt (40, 50, 60° C.) vs pH 7.5 without antioxidant at 40° C., about nine weeks. On the procedure: Four separate solutions containing 3% w/v of the compound of Formula 1 were prepared. The pH of the first solution was buffered to 6.5, 0.3% w/v thiosulfate salt was added and the solution was stored at 50° C. for about nine weeks. The pH of the second solution was adjusted to 6.5, 0.3% thiosulfate salt was added and the solution was stored at 40° C. for about nine weeks. The pH of the third solution was buffered to 6.5, 0.3% thiosulfate salt was added and the solution was allowed to stand at 60° C. for about nine […]. No antioxidant was added to the fourth solution which was buffered to a pH of 7.5 and allowed to stand at a temperature of 40° C. for about 9 weeks. The percentage of total degradates was measured for each solution after about every 2-4 weeks. The results of this experiment are graphically represented in FIG. 3.

Series [4] in a line: Effect of concentration (and EDTA) on formulation stability. To be noted: solutions with and without 0.1% EDTA. It counts as physicochemical. On the procedure: Three different concentrations of the compound of Formula 1, 1.0%, 3.0% and 5.0% were studied. The samples were monitored at a temperature of 40° C. The pH of the three solutions was maintained in the range of 7.0-7.5. The total % degradation of the three solutions was monitored with respect to time. The results of this experiment are graphically represented in FIG. 4.
Solutions both with and without 0.1% EDTA were monitored.

Series [5] in a line: Individual degradates A and B by HPLC analysis on storage. Format: physicochemical. To be noted: 5.0% w/v solutions, 40° C. vs 60° C., about nine weeks. On the procedure:
Two solutions containing 5.0% w/v of the compound of Formula 1 were prepared. The first solution was stored at 40° C. for about 9 weeks and the second solution was stored at 60° C. for a period of about nine weeks. The percentage of each of the two major degradates of Formula 1 (degradate A and degradate B) was measured by HPLC analysis for each solution after about every 2-4 weeks. The results of this experiment are graphically represented in FIG. 5.

A short description of series [6]: Degradation profile of 1.0% and 5.0% w/v solutions (degradation mechanism). Format: physicochemical. An excerpt: The results of these experiments are graphically represented in FIG. 7.
Series [7] in a line: Effect of sparging with nitrogen on stability. Format: physicochemical. To be noted: about 40° C., about four months. On the procedure: Four separate solutions of the compound of Formula 1 were prepared. The pH of the first solution was buffered to 6.0. The pH of the second solution was also buffered to 6.0 and the solution was additionally sparged with nitrogen. The pH of the third solution was buffered to 7.0. The pH of the fourth solution was also buffered to 7.0 and the solution was further sparged with nitrogen. All the four solutions were stored at a temperature of about 40° C. for a period of about four months. The percentage of total degradates was measured for each solution after about every four weeks. The results of this experiment are graphically represented in FIG. 8.

A short description of series [8]: Effect of pH on stability of nitrogen sparged solutions (four months). To be noted: pH 6.0, 7.0, 7.5, about 40° C. Format: physicochemical. On the procedure:
Three solutions of the compound of Formula 1 were prepared. The pH of the first solution was buffered to 6.0, the pH of the second solution was also buffered to 7.0 and pH of the third solution was buffered to 7.5. All the three solutions were sparged with nitrogen were stored at a temperature of about 40° C. for a period of about four months. The percentage of total degradates was measured for each solution after about every four weeks. The results of this experiment are graphically represented in FIG. 9.

Series [9] is described as follows: Effect of pH on stability of formulation with antioxidant (metabisulfite). It counts as physicochemical. To be noted: metabisulfite salt, pH 6.0 and 7.0, about 40° C., about four months. On the procedure:
Two solutions of the compound of Formula 1 were prepared. The pH of the first solution was buffered to 6.0 and the pH of the second solution was also buffered to 7.0. A metabisulfite salt was added to both the solutions and were stored at a temperature of about 40° C. for a period of about four months. The percentage of total degradates was measured for each solution after about every four weeks. The results of this experiment are graphically represented in FIG. 10.

A short description of series [10]: Effect of various antioxidants on stability at pH 6.5. To be noted: pH about 6.5, about 40° C., about one month, sodium thiosulfate (0.3% w/v) alone vs bisulfite, acetylcysteine, thioglycerol, Vitamin E TPGS, ascorbic acid. It counts as physicochemical. As for the experimental part: Seven different solutions of Formula 1, buffered at a pH of about 6.5, were prepared. Sodium bisulfite (0.2% w/v) and sodium thiosulfate (0.3% w/v) were added to the first solution, sodium bisulfite (0.2% w/v) was added to the second solution, sodium thiosulfate (0.3% w/v) was added to the third solution, acetylcysteine (0.2% w/v) was added to the fourth solution, thioglycerol (0.2% w/v) was added to the fifth solution, Vitamin E TPGS ([…]) was added to the sixth solution, and ascorbic acid (0.3% w/v) was added to the seventh solution. All solutions were stored at a temperature of about 40° C. for a period of about one month after which the percentage of total degradates was measured for each solution. The results of this experiment are graphically represented in FIG. 11.

A short description of series [11]: Effect of pH on stability, no antioxidant (one month). To be noted: pH 6.0, 7.0, 7.5, 8.0, 8.5, no antioxidant, about 40° C. It counts as physicochemical. On the procedure: Five different solutions of the compound of Formula 1 were prepared. The first solution was buffered to a pH of 6.0, the second solution was buffered to pH 7.0, the third solution was buffered to pH 7.5, the fourth solution was buffered to pH 8.0, and the fifth solution was buffered a pH of 8.5. No antioxidant was added and all solutions were stored at a temperature of about 40° C. for a period of about one month after which the percentage of total degradates was measured for each solution. The results of this experiment are graphically represented in FIG. 12.

Series [12] deals with LFA-1 interactions with ICAM-1 (Homo sapiens, UniProt P05107+P20701). The experiment in a line: Inhibition of LFA-1 interactions with ICAM-1.
The nature of the next series: Systemic clearance. Conditions: in vivo.

Chain of LFA-1 interactions with ICAM-1 (P20701 26-1170): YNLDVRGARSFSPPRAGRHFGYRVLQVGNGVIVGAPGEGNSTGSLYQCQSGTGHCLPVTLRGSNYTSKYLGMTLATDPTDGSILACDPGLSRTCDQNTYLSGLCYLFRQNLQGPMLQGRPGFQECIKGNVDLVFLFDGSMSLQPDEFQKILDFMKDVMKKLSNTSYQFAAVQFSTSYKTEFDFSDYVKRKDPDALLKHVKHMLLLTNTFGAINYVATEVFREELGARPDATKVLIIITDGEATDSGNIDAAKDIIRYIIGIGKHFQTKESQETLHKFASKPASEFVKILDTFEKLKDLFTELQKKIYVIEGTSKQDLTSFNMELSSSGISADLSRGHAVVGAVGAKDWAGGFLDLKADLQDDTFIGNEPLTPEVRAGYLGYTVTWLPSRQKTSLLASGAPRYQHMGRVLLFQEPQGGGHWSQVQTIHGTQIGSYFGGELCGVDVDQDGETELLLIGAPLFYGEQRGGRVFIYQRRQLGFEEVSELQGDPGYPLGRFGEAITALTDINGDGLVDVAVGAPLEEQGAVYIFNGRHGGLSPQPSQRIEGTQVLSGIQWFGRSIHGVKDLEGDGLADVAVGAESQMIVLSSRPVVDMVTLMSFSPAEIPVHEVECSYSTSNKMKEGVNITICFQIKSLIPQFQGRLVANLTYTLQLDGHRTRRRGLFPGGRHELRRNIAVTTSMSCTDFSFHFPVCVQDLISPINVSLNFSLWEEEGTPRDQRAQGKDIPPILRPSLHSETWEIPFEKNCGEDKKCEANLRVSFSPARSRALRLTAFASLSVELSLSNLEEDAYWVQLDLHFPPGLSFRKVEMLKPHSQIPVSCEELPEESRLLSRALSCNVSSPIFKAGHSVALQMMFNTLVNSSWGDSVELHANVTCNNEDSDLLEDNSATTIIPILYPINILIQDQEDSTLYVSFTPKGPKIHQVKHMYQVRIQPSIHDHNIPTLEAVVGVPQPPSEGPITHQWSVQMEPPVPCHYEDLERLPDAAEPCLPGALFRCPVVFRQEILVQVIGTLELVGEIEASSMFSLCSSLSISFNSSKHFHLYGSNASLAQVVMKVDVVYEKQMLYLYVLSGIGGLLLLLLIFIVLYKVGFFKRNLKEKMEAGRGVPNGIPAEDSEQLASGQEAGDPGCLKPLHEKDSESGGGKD
Chain of LFA-1 interactions with ICAM-1 (P05107 23-769): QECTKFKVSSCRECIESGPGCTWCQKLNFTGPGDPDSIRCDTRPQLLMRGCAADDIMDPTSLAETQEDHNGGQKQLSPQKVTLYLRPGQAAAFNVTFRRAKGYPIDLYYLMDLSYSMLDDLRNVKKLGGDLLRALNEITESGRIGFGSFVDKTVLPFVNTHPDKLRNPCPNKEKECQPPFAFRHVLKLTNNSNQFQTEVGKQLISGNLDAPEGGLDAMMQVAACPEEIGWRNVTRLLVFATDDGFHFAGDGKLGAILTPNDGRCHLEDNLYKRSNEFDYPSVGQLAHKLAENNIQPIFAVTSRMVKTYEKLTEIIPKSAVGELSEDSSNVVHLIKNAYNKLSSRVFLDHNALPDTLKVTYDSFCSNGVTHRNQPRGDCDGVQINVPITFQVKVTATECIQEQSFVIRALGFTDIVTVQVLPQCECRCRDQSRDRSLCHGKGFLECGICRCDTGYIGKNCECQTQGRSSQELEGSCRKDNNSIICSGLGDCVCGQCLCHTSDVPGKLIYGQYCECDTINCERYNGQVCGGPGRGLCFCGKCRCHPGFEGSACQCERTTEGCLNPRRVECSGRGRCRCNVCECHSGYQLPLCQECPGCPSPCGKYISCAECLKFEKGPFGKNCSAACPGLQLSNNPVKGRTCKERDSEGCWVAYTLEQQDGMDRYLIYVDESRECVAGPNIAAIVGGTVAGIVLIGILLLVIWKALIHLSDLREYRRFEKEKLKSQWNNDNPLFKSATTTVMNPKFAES

Regarding `CS(=O)(=O)c1cccc(C[C@H](NC(=O)c2c(Cl)cc3c(c2Cl)CCN(C(=O)c2ccc4ccoc4c2)C3)C(=O)O)c1` [compound of Formula 1], the “individual degradant versus ICH qualification threshold” value in series [1] (5.0% aqueous solution stored at 5° C., about 6 months) is “no individual degradant above the ICH qualification threshold”. The total degradation product entry was “about 5%” in series [1] (5.0% aqueous solution stored at 5° C., after about 6 months); 5% in [1] (5.0% aqueous solution stored at 25° C., in about 2 months); 5% in series [1] (5.0% aqueous solution stored at 40° C., in about 2 months). For the same molecule, the “individual degradate versus ICH qualification threshold” value in series [1] (5.0% aqueous solution stored at 25° C.) and in series [1] (5.0% aqueous solution stored at 40° C.) was “no individual degradate above the ICH qualification threshold” in each case. The “stability (total degradates), effect of added antioxidant” value in series [2] (pH 6.0 with metabisulfite salt vs pH 6.0 without additives, about four months) was “increases the stability”; in series [3] it was “increased the stability”. Moreover, the “stability (total degradates), effect of increasing pH” value in series [2] (pH 7.5 without antioxidant vs pH 6.0 without additives, about 4 months) is reported as “increases the stability”. In [4], the “stability, effect of presence or absence of EDTA” value was “did significantly change the stability”. Also, the “% formation of degradates A and B, effect of storage temperature” value in series [5] is “did not significantly affect”. Further, the “rate of degradation, 5.0% w/v vs 1.0% w/v solution” value in [6] (total percentage degradation about every four weeks for six months) was “greater than the rate of degradation of the 1.0 w/v solution”. The “final level of degradation, 5.0% w/v vs 1.0% w/v solution” value in series [6] (when a limiting reactant such as oxygen is reduced, six months) is reported as “appear to reach the same level of degradation”. Besides, the “stability (total degradates), effect of nitrogen sparging” value in series [7] (pH 6.0 and pH 7.0, sparged vs not sparged) is reported as “better stability”. The “stability (total degradates), pH 7.0 vs pH 6.0” value in series [7] (with and without nitrogen sparging) is reported as “improved stability”. In addition, the “stability (total degradates), effect of pH” value is “higher pH exhibited improved stability” in series [8] and “higher pH exhibited better stability” in series [11]. For the same molecule, the “degradation and pH sensitivity of stability, effect of antioxidant” value in series [9] was “significantly reduces both the degradation of Formula 1 and the sensitivity of the stability of Formula 1 to pH”. Besides, the “stability (total degradates), comparison of antioxidants” value in series [10] is “best overall stability”. Also, in series [12], the “inhibition of LFA-1 interactions with ICAM-1” value is reported as “effective inhibitor”. Moreover, in the series “Systemic clearance”, the systemic clearance rate result is given as “rapid systemic clearance rate”.
